Blank lines part the entries; values can stand above or below the compound they belong to.
Experiments:
Hbb th3/+ mice = assay: Improvement of anemia, ineffective erythropoiesis and iron overload in a mouse model of β-thalassemia intermedia; type: in vivo; conditions: for Correction of anemia at day 20-48 (hemoglobin, difference to vehicle control) / Decrease in 58Fe spleen iron content / Decrease in blood reticulocyte counts / Decrease in leukocyte counts / Decrease in serum erythropoietin / Increase in blood erythrocyte counts / Increase in hematocrit / Prevention of liver 58Fe loading: 27 days (127) or 46 days (40); for Decrease in serum iron: Hbb th3/+ mice, % change to vehicle control
Procedure: The efficacy of Fpn inhibitors was investigated using a mouse model of transfusion-independent β-thalassemia. Mice with heterozygous deletion of β1 and β2 globin genes (called Hbb th3/+ mice) develop transfusion-independent anemia, ineffective erythropoiesis, splenomegaly and secondary iron overload in spleen, liver and kidneys. […] Hbb th3/+ mice were dosed twice daily with either compound at 20 or 60 mg/kg or with methylcellulose (10 ml/kg, Sigma, Cat. 274429) as a vehicle. Between both doses mice had access to drinking water supplemented with 1 mM ^58Fe(II)-sulfate (Vifor Pharma, Batch No. ROR 3096) and 10 mM ascorbic acid (Sigma, Cat. 795437) for 6 h. […] Water without ^58Fe(II)-Sulfate and ascorbic acid was provided during the remaining 18 h. Dosing of Fpn inhibitors or vehicle followed by exposure to iron-containing water was repeated for 20 to 46 days in individual experiments.
Additional hematologic parameters were measured in terminal blood using automated blood cell analyzer.
The inefficient erythropoiesis of Hbb th3/+ mice causes excessive proliferation of erythroid precursors in spleen, leading to splenomegaly.
Elevated erythropoietin levels in Hbb th3/+ mice hduced overexpression of erythroferrone, an erythroid regulator hormone known to suppress hepcidin (Kautz L. et al, Nat. Genet., 2014). […] Erythroferrone is produced by erythrocyte precursors proliferating massively in spleens of Hbb th3/+ mice as a consequence of extramedullar erythropoiesis.
Increased iron demand due to inefficient erythropoiesis and chronically low hepcidin levels in patients with thalassemia causes organ iron loading and associated morbidities, such as hepatocellular carcinoma and heart failure (Rivella S. Haematologica, 2015). Hbb th3/+ mice absorb excessive amounts of iron as a consequence of inadequately low hepcidin levels relative to the high iron content in liver, spleen and kidney and increased ferroportin expression in duodenum (Gardenghi S., Blood, 2007).
Additionally, reactive oxygen species (ROS) were detected in bone marrow cells using a fluorescent indicator, CM-H2DCFDA (Thermo Fisher Scientific, Cat. C6827).

ferroportin (Fpn) = molecular target: T1, ferroportin (Fpn) (Mus musculus, UniProt Q9JHI9); assay: Ferroportin Ubiquitination and Degradation (immunoprecipitation, Western blot); type: cell-based; design: key: + comparable to hepcidin; − no effect; +/− intermediate effect; conditions: J774 cells; visual inspection of Western blots; concentration per compound ca. 10-fold J774 IC50
T1 construct: host or cells: J774 mouse macrophage cell line, Fe(III)-NTA induced
T1 sequence (Q9JHI9 1-570): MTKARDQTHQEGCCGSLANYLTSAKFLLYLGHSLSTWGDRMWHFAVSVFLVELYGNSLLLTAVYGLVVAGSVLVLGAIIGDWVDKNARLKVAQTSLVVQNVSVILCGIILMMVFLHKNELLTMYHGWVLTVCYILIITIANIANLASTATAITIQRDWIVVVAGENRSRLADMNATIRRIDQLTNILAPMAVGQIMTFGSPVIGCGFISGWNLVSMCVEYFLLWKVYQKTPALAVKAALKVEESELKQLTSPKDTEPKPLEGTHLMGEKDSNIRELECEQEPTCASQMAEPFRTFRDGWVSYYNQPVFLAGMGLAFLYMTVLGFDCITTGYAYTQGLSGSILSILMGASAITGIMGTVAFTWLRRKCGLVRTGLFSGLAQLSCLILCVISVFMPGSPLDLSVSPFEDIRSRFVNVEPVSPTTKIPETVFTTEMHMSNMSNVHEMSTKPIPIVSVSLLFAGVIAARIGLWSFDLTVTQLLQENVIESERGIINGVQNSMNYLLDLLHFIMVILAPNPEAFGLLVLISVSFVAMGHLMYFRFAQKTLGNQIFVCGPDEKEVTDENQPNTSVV
Procedure: Exposure of cells expressing ferroportin (Fpn) to hepcidin is known to trigger ubiquitination aid subsequent internalization and degradation of Fpn (Qiao, 2012). The potential of Fpn inhibitors to induce Fpn ubiquitination and degradation was investigated with an immunoprecipitation assay using the J774 mouse macrophage cell line which expresses Fpn upon treatment with iron.
Cells were incubated with synthetic human hepcidin (Bachem, Cat. H-5926) or Fpn inhibitor compounds for 10 min or 120 min. Cells were washed and lysed witi ice-cold lysis buffer (Pierce, Life Technoligies, Cat. 87787) including 1× HALT protease inhibitor cocktail (Life technologies, Cat. 78429) and 10 mM iodoacetamide (Sigma, Cat. 16125) to stabilize ubiquitinated proteins. Immunoprecipitation was done using the Pierce Classic IP Kit (Life Technologies, Cat. 26146) following the manufacturer's protocol. Briefly, 2 mg protein in 1.25 ml IP lysis buffer was incubated by mixing for 1 h at 4° C. with control agarose beads to pre-clear the lysate and reduce nonspecific signal. Unbound lysate was then incubated overnight with 12 μg per reaction of the affinity purified anti-Fpn antibody F308 that was raised against a GST fusion protein of mouse Fpn amino acids 224308. Immune complexes were captured by pipetting 14 μl settled Pierce Protein A/G Plus Agarose beads (Life Technologies, Cat. 20423) per reaction and the slurry was incubated for 1.5 h at 4° C. with gentle end-over-end mixing. The beads were washed and immune complexes were eluted directly with 75 μl SDS NuPAGE LDS sample buffer (Life Technologies, Cat. NP0007) containing DTT (Life Technologies, Cat. NP0009). After immunoprecipitation samples were analyzed by Western blotting using a rabbit anti-mouse MTP1 antiserum (Alpha Diagnostic International, Cat. MTP11-A) and a mouse anti-mono- and polyubiquitinylated conjugates monoclonal antibody (Enzo Lifesciences, Cat. BML-PW8810) for detection of ferroportin and ubiquitin, respectively. Mouse monoclonal anti-rabbit IgG light chain (Abcam, Cat. ab99697) and anti-mouse IgG H&L (Abcam, Cat. ab6789) HRP conjugates were used as secondary antibodies.
A selection of eleven Fpn inhibitors were tested in this assay and compared to hepcidin.
J774 cells were incubated overnight with Fe(III)-NTA to induce expression of Fpn. […] Mock treated cells were harvested after 120 min (Control).

SMILES: O=C(NCc1ncccc1F)c1coc(CCNCCc2nc3ccccc3[nH]2)n1 [Example 127]
Decrease in RDW (Hbb th3/+ mice; 20 mg/kg twice daily, 27 days (127)): 19% | Correction of anemia at day 20-48 (hemoglobin, difference to vehicle control) (Hbb th3/+ mice; 20 mg/kg twice daily): 12 g/L | Decrease in 58Fe spleen iron content (Hbb th3/+ mice; 20 mg/kg twice daily): 43% | Decrease in blood reticulocyte counts (Hbb th3/+ mice; 20 mg/kg twice daily): 16% | Decrease in leukocyte counts (Hbb th3/+ mice; 20 mg/kg twice daily): 46% | Decrease in serum erythropoietin (Hbb th3/+ mice; 20 mg/kg twice daily): 32% | Increase in blood erythrocyte counts (Hbb th3/+ mice; 20 mg/kg twice daily): 0% | Increase in hematocrit (Hbb th3/+ mice; 20 mg/kg twice daily): 3% | Prevention of liver 58Fe loading (Hbb th3/+ mice; 20 mg/kg twice daily): 39% | Decrease in serum iron (Hbb th3/+ mice; 20 mg/kg): 68% | Decrease in RDW (Hbb th3/+ mice; 60 mg/kg twice daily, 27 days (127)): 25% | Correction of anemia at day 20-48 (hemoglobin, difference to vehicle control) (Hbb th3/+ mice; 60 mg/kg twice daily): 20 g/L | Decrease in 58Fe spleen iron content (Hbb th3/+ mice; 60 mg/kg twice daily): 68% | Decrease in blood reticulocyte counts (Hbb th3/+ mice; 60 mg/kg twice daily): 61% | Decrease in leukocyte counts (Hbb th3/+ mice; 60 mg/kg twice daily): 66% | Decrease in serum erythropoietin (Hbb th3/+ mice; 60 mg/kg twice daily): 33% | Increase in blood erythrocyte counts (Hbb th3/+ mice; 60 mg/kg twice daily): 36% | Increase in hematocrit (Hbb th3/+ mice; 60 mg/kg twice daily): 20% | Prevention of liver 58Fe loading (Hbb th3/+ mice; 60 mg/kg twice daily): 59% | Decrease in serum iron (Hbb th3/+ mice; 60 mg/kg): 81% | Decreased in ROS in bone marrow erythrocytes (Hbb th3/+ mice; second value of the cell (60 mg/kg) twice daily, 27 days (127)): NA/75%

SMILES: CC[C@H](C)[C@@H]1NC(=O)[C@@H](NC(=O)[C@@H](NC(=O)[C@@H]2CCCN2C(=O)[C@H](Cc2ccccc2)NC(=O)[C@H](Cc2c[nH]cn2)NC(=O)[C@@H](NC(=O)[C@@H](N)CC(=O)O)[C@@H](C)O)[C@@H](C)CC)CSSC[C@@H](C(=O)N[C@@H](CCCCN)C(=O)N[C@H](C(=O)O)[C@@H](C)O)NC(=O)[C@@H]2CSSC[C@@H]3NC(=O)[C@@H]4CSSC[C@H](NC(=O)[C@H](Cc5ccccc5)NC1=O)C(=O)N[C@@H](CSSC[C@H](NC(=O)[C@H](CCCCN)NC(=O)[C@H](CO)NC(=O)[C@H](CCCNC(=N)N)NC(=O)[C@H](Cc1c[nH]cn1)NC3=O)C(=O)NCC(=O)N[C@@H](CCSC)C(=O)N2)C(=O)NCC(=O)N4 [hepcidin, reference compound]
Fpn Degradation (120 min.) (ferroportin (Fpn)): + | Fpn Ubiquitination (10 min.) (ferroportin (Fpn)): +

Fpn Degradation (120 min.) (ferroportin (Fpn)): + | Fpn Ubiquitination (10 min.) (ferroportin (Fpn)): +/−
SMILES: O=C(NCc1ncccc1F)c1coc(CCNCc2nc3ccccc3[nH]2)n1 [Example 126]
